In patent US20250100998A1, “PARP7 INHIBITORS” (Gilead Sciences, Inc., priority 2023, published 2025):

Each compound was assayed on STAT1 (phosphorylated at Tyr701) in NCI-H1373 cells (assay: Phospho-STAT1 (Tyr701) LANCE Ultra TR-FRET detection assay). Settings: Homo sapiens, NCI-H1373, 48 h, induction of pSTAT1 in NCI-H1373 cells, 48 hours incubation; normalized to 10 uM positive control and DMSO; 4-parameter fit; read-out: NH1373 pSTAT1 EC50.
Type: cell-based
Description: Phospho-STAT1 (Tyr701 LANCE Ultra TR-FRET Detection Assay
LANCE Ultra phospho-STAT1 (Tyr701) kits are designed for the detection of phosphorylated STAT1 in cell lysates using a simple, homogeneous LANCE Ultra sandwich assay (Cat. #TRF4028M). This assay is intended for assessing compound induction of endogenous levels of cellular STAT1 (phosphorylated at Tyr701) in NCI-H1373 cells. The NCI-H1373 cells are cultured in RPMI 1640 media containing 10% heat inactivated FBS, GlutaMAX, 1% Penicillin-Streptomycin. An Echo acoustic liquid handler is used to transfer 60 nanoliters of compound dilutions using the Echo Qualified, 384-well polypropylene microplate clear flat bottom source plates into a Greiner (#781080) cell culture microplate. NCI-H1373 cells are seeded into these compound-spotted culture plates at 30,000 cells/well in a 60 uL volume in growth media. The plates are incubated in a 5% CO2 humidified incubator at 37° C. for 48 hours. […] Briefly, […] of supplemented lysis buffer is added to each well and allowed to shake for 1 hour at 400 rpm. Next, 5 ul of remixed antibody solutions (vol/vol) prepared in detection buffer are added to each well and allowed to incubate at room temperature overnight. After spinning the plate down at 300 rpm for 1 min, the plate is read on an EnVision plate reader set up for Eu3+ Cryptate and fluorescence emission is measured at two different wavelengths (665 nm and 620 nm). The HTRF ratio is then calculated ([…]) for each well to determine the amount of pSTAT1 in the cell lysate, and the data is then normalized to 10 uM (S)-5-((1-(3-oxo-3-(4-(5-(trifluoromethyl)pyrimidin-2-yl)piperazin-1-yl)propoxy)propan-2-yl)amino)-4-(trifluoromethyl)pyridazin-3(2H)-one positive and DMSO negative controls. The values were then plotted as a function of compound concentration and a 4-parameter fit was applied to derive the EC50 values.

Row | SMILES | EC50
1 | O=c1[nH]ncc(N[C@@H]2C[C@H](Cn3ccc4cc(-c5ncc(C(F)(F)F)cn5)c(F)cc4c3=O)CC[C@@H]2O)c1C(F)(F)F (racemic) [Example 68, 7-fluoro-2-(((rac-1R,3R,4S)-4-hydroxy-3-((6-oxo-5-(trifluoromethyl)-1,6-dihydropyridazin-4-yl)amino)cyclohexyl)methyl)-6-(5-(trifluoromethyl)pyrimidin-2-yl)isoquinolin-1(2H)-one] | 65.1 nM
2 | O=c1[nH]ncc(N[C@@H]2C[C@H](Cn3ccc4cc(-c5ncc(C(F)(F)F)cn5)c(F)cc4c3=O)CC(F)(F)C2)c1C(F)(F)F (single isomer, unassigned) [Example 66] | 29.2 nM
3 | O=c1[nH]ncc(N[C@H]2C[C@@H](Cn3ccc4cc(-c5ncc(C(F)(F)F)cn5)c(F)cc4c3=O)CC(F)(F)C2)c1C(F)(F)F (single isomer, unassigned) [Example 67] | 100 nM
4 | O=c1[nH]ncc(N[C@H]2CCC[C@@H](Cn3ccc4cc(-c5ncc(-n6cccn6)cn5)c(F)cc4c3=O)C2)c1C(F)(F)F [Example 1, 7-fluoro-2-[[(1R,3S)-3-[[6-oxo-5-(trifluoromethyl)-1H-pyridazin-4-yl]amino]cyclohexyl]methyl]-6-(5-pyrazol-1-ylpyrimidin-2-yl)isoquinolin-1-one] | 6.54 nM
5 | N#Cc1cnc(-c2cc3ccn(C[C@@H]4CCC[C@H](Nc5cn[nH]c(=O)c5C(F)(F)F)C4)c(=O)c3cc2F)nc1 [Example 2, 2-(7-fluoro-1-oxo-2-(((1R,3S)-3-((6-oxo-5-(trifluoromethyl)-1,6-dihydropyridazin-4-yl)amino)cyclohexyl)methyl)-1,2-dihydroisoquinolin-6-yl)pyrimidine-5-carbonitrile] | 11.8 nM
6 | COc1nc(-c2cc3ccn(C[C@@H]4CCC[C@H](Nc5cn[nH]c(=O)c5C(F)(F)F)C4)c(=O)c3cc2F)ncc1C#N [Example 3, 2-(7-fluoro-1-oxo-2-(((1R,3S)-3-((6-oxo-5-(trifluoromethyl)-1,6-dihydropyridazin-4-yl)amino)cyclohexyl)methyl)-1,2-dihydroisoquinolin-6-yl)-4-methoxypyrimidine-5-carbonitrile] | 3.85 nM
7 | CC(F)(F)c1cnc(-c2cc3ccn(C[C@@H]4CCC[C@H](Nc5cn[nH]c(=O)c5C(F)(F)F)C4)c(=O)c3cc2F)nc1 [Example 4, 6-(5-(1,1-difluoroethyl)pyrimidin-2-yl)-7-fluoro-2-(((1R,3S)-3-((6-oxo-5-(trifluoromethyl)-1,6-dihydropyridazin-4-yl)amino)cyclohexyl)methyl)isoquinolin-1(2H)-one] | 2.26 nM
8 | O=c1[nH]ncc(N[C@H]2CCC[C@@H](Cn3ccc4cc(-c5ncc(OC(F)F)cn5)c(F)cc4c3=O)C2)c1C(F)(F)F [Example 5, 6-(5-(difluoromethoxy)pyrimidin-2-yl)-7-fluoro-2-(((1R,3S)-3-((6-oxo-5-(trifluoromethyl)-1,6-dihydropyridazin-4-yl)amino)cyclohexyl)methyl)isoquinolin-1(2H)-one] | 4.74 nM
9 | Cc1nc(-c2cc3ccn(C[C@@H]4CCC[C@H](Nc5cn[nH]c(=O)c5C(F)(F)F)C4)c(=O)c3cc2F)ncc1C(F)(F)F [Example 6, 7-fluoro-6-(4-methyl-5-(trifluoromethyl)pyrimidin-2-yl)-2-(((1R,3S)-3-((6-oxo-5-(trifluoromethyl)-1,6-dihydropyridazin-4-yl)amino)cyclohexyl)methyl)isoquinolin-1(2H)-one] | 5.13 nM
10 | Cc1nc(-c2cc3ccn(C[C@@H]4CCC[C@H](Nc5cn[nH]c(=O)c5C(F)(F)F)C4)c(=O)c3cc2F)ncc1Cl [Example 7, 6-(5-chloro-4-methylpyrimidin-2-yl)-7-fluoro-2-(((1R,3S)-3-((6-oxo-5-(trifluoromethyl)-1,6-dihydropyridazin-4-yl)amino)cyclohexyl)methyl)isoquinolin-1(2H)-one] | 6.03 nM
